How the values were obtained:
A549 [1] = experiment: Photodynamic cytotoxicity against human A549 cells assessed as cell growth inhibition upon light irradiation by WST assay; type: functional, cell-based
A549 [2] = experiment: Cytotoxicity against human A549 cells assessed as cell growth inhibition by WST assay; type: functional, cell-based
HeLa [3] = experiment: Cytotoxicity against human HeLa cells assessed as cell growth inhibition incubated for […] followed by fresh medium replacement without compound and further incubated for 44 hrs under dark condition by resazurin based fluorimetry; type: functional
HeLa [4] = experiment: Photodynamic cytotoxicity against human HeLa cells assessed as cell growth inhibition incubated for 4 hrs followed by fresh medium replacement without compound upon 6.95 J/cm2 light irradiation for 15 mins and further incubated for 44 hrs by resazurin based fluorimetry; type: functional; conditions: light or radiation study
UMUC3 [5] = experiment: Photodynamic cytotoxicity against human UMUC3 cells assessed as cell growth inhibition upon light irradiation; type: functional, cell-based; conditions: UMUC3, light or radiation study
FaDu [6] = experiment: Photodynamic cytotoxicity against human FaDu cells assessed as cell growth inhibition upon light irradiation; type: functional, cell-based; conditions: light or radiation study
HeLa [7] = experiment: Photodynamic cytotoxicity against human HeLa cells assessed as cell growth inhibition incubated for 24 hrs followed by medium replacement without compound upon 1 J/cm2 light irradiation and measured after 24 hrs by MTT assay; type: functional, cell-based
HeLa [8] = experiment: Cytotoxicity against human HeLa cells assessed as cell growth inhibition incubated for 24 hrs by MTT assay; type: functional, cell-based
NCI-H460 [9] = experiment: Cytotoxicity against human H460M2 cells assessed as cell growth inhibition incubated for 24 hrs by MTT assay; type: functional, cell-based
HBL-100 [10] = experiment: Photodynamic cytotoxicity against human HBL-100 cells assessed as cell growth inhibition incubated for 24 hrs by MTT assay; type: functional, cell-based
HBL-100 [11] = experiment: Photodynamic cytotoxicity against human HBL-100 cells assessed as cell growth inhibition incubated for 24 hrs followed by medium replacement without compound upon 1 J/cm2 light irradiation and measured after 24 hrs by MTT assay; type: functional, cell-based
NCI-H460 [12] = experiment: Photodynamic cytotoxicity against human H460M2 cells assessed as cell growth inhibition incubated for 24 hrs followed by medium replacement without compound upon 1 J/cm2 light irradiation and measured after 24 hrs by MTT assay; type: functional, cell-based
UMUC3 [13] = experiment: Photodynamic cytotoxicity against human UMUC3 cells assessed as cell growth inhibition upon 1 J/cm2 light irradiation; type: functional, cell-based; conditions: UMUC3, light or radiation study
FaDu [14] = experiment: Photodynamic cytotoxicity against human FaDu cells assessed as cell growth inhibition upon 1 J/cm2 light irradiation; type: functional, cell-based; conditions: light or radiation study
A549 [15] = experiment: Photodynamic cytotoxicity against human A549 cells assessed as cell growth inhibition upon light irradiation; type: functional, cell-based; conditions: A549, light or radiation study
A549 [16] = experiment: Cytotoxicity against human A549 cells assessed as cell growth inhibition; type: functional, cell-based
[17] = Homo sapiens, A549, light or radiation study

In the case of `C[n+]1ccc(-c2c3nc(c(-c4cc[n+](C)cc4)c4ccc([nH]4)c(-c4cc[n+](C)cc4)c4nc(c(-c5cc[n+](C)cc5)c5ccc2[nH]5)C=C4)C=C3)cc1`, the IC50 (A549 [1]; [17]) is reported as 0.3 µM and the IC50 (A549 [2]; Homo sapiens, A549) is reported as greater than 100 µM.
With `C1=Cc2nc1c(-c1ccncc1)c1ccc([nH]1)c(-c1ccncc1)c1nc(c(-c3ccncc3)c3ccc([nH]3)c2-c2ccncc2)C=C1` the IC50 (HeLa [3]) was greater than 100 µM and the IC50 (HeLa [4]) was 5.8 µM.
With `CCCCCCOC(C)C1=C(C)c2cc3nc(c4c5[nH]c(cc6[nH]c(cc1n2)c(C)c6CC)c(C)c5C(=O)C4)[C@@H](CCC(=O)O)[C@@H]3C` (stereo partly drawn) the IC50 (UMUC3 [5]) was 0.068 µM and the IC50 (FaDu [6]) was 0.043 µM.
Molecule `C[n+]1ccc(-c2c3nc(c(-c4cc[n+](C)cc4)c4ccc([nH]4)c(-c4cc[n+](C)cc4)c4nc(c(-c5ccc(OCc6cn(CCc7c8[nH]c9ccccc9c8cc[n+]7C)nn6)cc5)c5ccc2[nH]5)C=C4)C=C3)cc1` has an IC50 (A549 [1]; a549) of 0.06 µM and an IC50 (A549 [2]; a549) greater than 100 µM.
Work on `C[n+]1ccc(-c2c3nc(c(-c4cc[n+](C)cc4)c4ccc([nH]4)c(-c4cc[n+](C)cc4)c4nc(c(-c5ccc(C(=O)NCCOCCOCCNC(=O)CN6CCNCCNCC6)cc5)c5ccc2[nH]5)C=C4)C=C3)cc1` yielded an IC50 (HeLa [7]) greater than 100 µM, an IC50 (HeLa [8]) greater than 100 µM and an IC50 (NCI-H460 [9]) greater than 100 µM. The IC50 (HBL-100 [10]) was greater than 100 µM, the IC50 (HBL-100 [11]) was greater than 100 µM and the IC50 (NCI-H460 [12]) was greater than 100 µM.
Work on `CCc1c(C)c2cc3nc(cc4nc(c5c6[nH]c(cc1[nH]2)c(C)c6C(=O)C5)[C@@H](CCC(=O)OC)[C@@H]4C)C(C)=C3C(C)OCc1ccc(C#Cc2cccc(Nc3ncnc4cc(OCCOC)c(OCCOC)cc34)c2)cc1` (stereo partly drawn) yielded an IC50 (UMUC3 [13]) of 0.021 µM and an IC50 (FaDu [14]) of 0.06 µM.
`CCCCCCOC(C)C1=C(C)c2cc3nc(c4c5[nH]c(cc6[nH]c(cc1n2)c(C)c6CC)c(C)c5C(=O)C4)[C@@H](CCC(=O)NCCCCn1cc(-c2cccc(Nc4ncnc5cc(OCCOC)c(OCCOC)cc45)c2)nn1)[C@@H]3C` (stereo partly drawn) was tested, and the IC50 (UMUC3 [13]) was 0.02 µM and the IC50 (FaDu [14]) was 0.018 µM.
Work on `CCc1c(C)c2cc3nc(cc4nc(c5c6[nH]c(cc1[nH]2)c(C)c6C(=O)C5)[C@@H](CCC(=O)O)[C@@H]4C)C(C)=C3C(C)OCc1cccc(C#Cc2cccc(Nc3ncnc4cc(OCCOC)c(OCCOC)cc34)c2)c1` (stereo partly drawn) yielded an IC50 (UMUC3 [13]) of 0.054 µM and an IC50 (FaDu [14]) of 0.031 µM.
`CCc1c(C)c2cc3nc(cc4nc(c5c6[nH]c(cc1[nH]2)c(C)c6C(=O)C5)[C@@H](CCC(=O)OC)[C@@H]4C)C(C)=C3COCc1cccc(C#Cc2cccc(Nc3ncnc4cc(OCCOC)c(OCCOC)cc34)c2)c1` gave an IC50 (UMUC3 [13]) of 0.076 µM and an IC50 (FaDu [14]) of 0.023 µM.
`C1=Cc2nc1c(-c1ccncc1)c1ccc([nH]1)c(-c1ccncc1)c1nc(c(-c3ccc(OCc4cn(CCc5nccc6c5[nH]c5ccccc56)nn4)cc3)c3ccc([nH]3)c2-c2ccncc2)C=C1` gave an IC50 (A549 [1]; [17]) of 43.1 µM and an IC50 (A549 [2]; Homo sapiens, A549) greater than 100 µM.
`CCc1c(C)c2cc3nc(cc4nc(c5c6[nH]c(cc1[nH]2)c(C)c6C(=O)C5)[C@@H](CCC(=O)OC)[C@@H]4C)C(C)=C3C(C)OCc1cccc(C#Cc2cccc(Nc3ncnc4cc(OCCOC)c(OCCOC)cc34)c2)c1` (stereo partly drawn) was tested, and the IC50 (UMUC3 [13]) was 0.059 µM and the IC50 (FaDu [14]) was 0.035 µM.
`C1=Cc2nc1c(-c1ccccc1)c1ccc([nH]1)c(-c1ccccc1)c1nc(c(-c3ccc(OCc4cn(CC[n+]5c6ccccc6cc6[nH]c7ccccc7c65)nn4)cc3)c3ccc([nH]3)c2-c2ccccc2)C=C1` gave an IC50 (A549 [15]) of 2.5 µM and an IC50 (A549 [16]) of 33.6 µM.
